tested on: Aβ 40 in conditioned media of cells stably expressing Amyloid Precursor Protein (APP); test: BACE Cell-Based Assay (Aβ40 in conditioned medium, sandwich ELISA); conditions: 24 hours of incubation with the test compounds, Aβ 40 by sandwich ELISA, read-out: IC50 values in the cell-based assay (inhibition of Aβ 40)
How it was run: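 APP-stably-expressing cells in DMEM/10% FBS exposed 24 h to 10-point compound dilutions starting at 100 or 10 μM, 0.1% DMSO final. Aβ40 in conditioned medium measured by sandwich ELISA (pAb40 capture, biotinylated 6E10 detection, Eu time-resolved fluorescence); IC50 from percent inhibition versus concentration.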

Row | IC50 [µM] | Structure (SMILES)
1 | ≤ 5 | Cc1cccc(C(=O)N2CCO[C@H](C(=O)N[C@@H](Cc3cccc(C#N)c3)[C@H](O)CN[C@H]3CC4(CCC4)Cc4ncc(C)cc43)C2)c1 [Example 490, (2S)-N-((1S,2R)-1-((3-cyanophenyl)methyl)-2-hydroxy-3-(((5′S)-3′-methyl-5′,8′-dihydro-6′H-spiro[cyclobutane-1,7′-quinolin]-5′-yl)amino)propyl)-4-((3-methylphenyl)carbonyl)-2-morpholinecarboxamide]
2 | ≤ 5 | Cc1cccc(C(=O)N2CCO[C@@H](C(=O)N[C@@H](Cc3cccc(C#N)c3)[C@H](O)CN[C@H]3CC4(CCC4)Cc4ncc(C)cc43)C2)c1 [Example 491, (2R)-N-((1S,2R)-1-((3-cyanophenyl)methyl)-2-hydroxy-3-(((5′S)-3′-methyl-5′,8′-dihydro-6′H-spiro[cyclobutane-1,7′-quinolin]-5′-yl)amino)propyl)-4-((3-methylphenyl)carbonyl)-2-morpholinecarboxamide]
3 | ≤ 5 | Cc1cccc(C(=O)N2CCO[C@H](C(=O)N[C@@H](Cc3cc(F)cc(F)c3)[C@H](O)CN[C@H]3CC4(CCC4)Cc4ncc(C)cc43)C2)c1 [Example 492, (2S)-N-((1S,2R)-1-((3,5-difluorophenyl)methyl)-2-hydroxy-3-(((5′S)-3′-methyl-5′,8′-dihydro-6′H-spiro[cyclobutane-1,7′-quinolin]-5′-yl)amino)propyl)-4-((3-methylphenyl)carbonyl)-2-morpholinecarboxamide]
4 | ≤ 5 | Cc1cccc(C(=O)N2CCO[C@@H](C(=O)N[C@@H](Cc3cc(F)cc(F)c3)[C@H](O)CN[C@H]3CC4(CCC4)Cc4ncc(C)cc43)C2)c1 [Example 493, (2R)-N-((1S,2R)-1-((3,5-difluorophenyl)methyl)-2-hydroxy-3-(((5′S)-3′-methyl-5′,8′-dihydro-6′H-spiro[cyclobutane-1,7′-quinolin]-5′-yl)amino)propyl)-4-((3-methylphenyl)carbonyl)-2-morpholinecarboxamide]
5 | ≤ 5 | Cc1cccc(C(=O)N2CCO[C@H](C(=O)N[C@@H](Cc3ccccc3)[C@H](O)CN[C@H]3CC4(CCC4)Cc4ncc(C)cc43)C2)c1 [Example 494, (2S)-N-((1S,2R)-2-hydroxy-3-(((5′S)-3′-methyl-5′,8′-dihydro-6′H-spiro[cyclobutane-1,7′-quinolin]-5′-yl)amino)-1-(phenylmethyl)propyl)-4-((3-methylphenyl)carbonyl)-2-morpholinecarboxamide]
6 | ≤ 5 | Cc1cccc(C(=O)N2CCO[C@@H](C(=O)N[C@@H](Cc3ccccc3)[C@H](O)CN[C@H]3CC4(CCC4)Cc4ncc(C)cc43)C2)c1 [Example 495, (2R)-N-((1S,2R)-2-hydroxy-3-(((5′S)-3′-methyl-5′,8′-dihydro-6′H-spiro[cyclobutane-1,7′-quinolin]-5′-yl)amino)-1-(phenylmethyl)propyl)-4-((3-methylphenyl)carbonyl)-2-morpholinecarboxamide]
7 | ≤ 5 | Cc1cccc(C(=O)N2CCO[C@H](C(=O)N[C@@H](Cc3cccc(C#N)c3)[C@H](O)CN[C@H]3CC(C)(C)Cc4ncc(C)cc43)C2)c1 [Example 496, (2S)-N-((1S,2R)-1-((3-cyanophenyl)methyl)-2-hydroxy-3-(((5S)-3,7,7-trimethyl-5,6,7,8-tetrahydro-5-quinolinyl)amino)propyl)-4-((3-methylphenyl)carbonyl)-2-morpholinecarboxamide]
8 | ≤ 5 | Cc1cccc(C(=O)N2CCO[C@@H](C(=O)N[C@@H](Cc3cccc(C#N)c3)[C@H](O)CN[C@H]3CC(C)(C)Cc4ncc(C)cc43)C2)c1 [Example 497, (2R)-N-((1S,2R)-1-((3-cyanophenyl)methyl)-2-hydroxy-3-(((5S)-3,7,7-trimethyl-5,6,7,8-tetrahydro-5-quinolinyl)amino)propyl)-4-((3-methylphenyl)carbonyl)-2-morpholinecarboxamide]
9 | ≤ 5 | Cc1cccc(C(=O)N2CCO[C@H](C(=O)N[C@@H](Cc3ccccc3)[C@H](O)CN[C@H]3CC(C)(C)Cc4ncc(C)cc43)C2)c1 [Example 498, (2S)-N-((1S,2R)-2-hydroxy-1-(phenylmethyl)-3-(((5S)-3,7,7-trimethyl-5,6,7,8-tetrahydro-5-quino-linyl)amino)propyl)-4-((3-methylphenyl)carbonyl)-2-morpholinecarboxamide]
10 | ≤ 5 | Cc1cccc(C(=O)N2CCO[C@@H](C(=O)N[C@@H](Cc3ccccc3)[C@H](O)CN[C@H]3CC(C)(C)Cc4ncc(C)cc43)C2)c1 [Example 499, (2R)-N-((1S,2R)-2-hydroxy-1-(phenylmethyl)-3-(((5S)-3,7,7-trimethyl-5,6,7,8-tetrahydro-5-quinolinyl)amino)propyl)-4-((3-methylphenyl)carbonyl)-2-morpholinecarboxamide]
11 | ≤ 5 | CCc1ccc2c(c1)[C@@H](NC[C@@H](O)[C@H](Cc1csc(C)n1)NC(=O)c1cc(-c3ccccn3)c(=O)n(C3CCCC3)c1)CC1(CCC1)O2 [Example 500, 1′-cyclopentyl-N-((1S,2R)-3-(((4S)-6-ethyl-3,4-dihydrospiro[chromene-2,1′-cyclobutan]-4-yl)amino)-2-hydroxy-1-((2-methyl-1,3-thiazol-4-yl)methyl)propyl)-2′-oxo-1′,2′-dihydro-2,3′-bipyridine-5′-carboxamide]
12 | ≤ 5 | CC(C)n1cc(C(=O)N[C@@H](Cc2ccccc2)[C@H](O)CN[C@H]2CC(C)(C)Cc3sc(CC(C)(C)C)cc32)cc(-c2ccccn2)c1=O [Example 501, N-((1S,2R)-3-(((4S)-2-(2,2-dimethylpropyl)-6,6-dimethyl-4,5,6,7-tetrahydro-1-benzothien-4-yl)amino)-2-hydroxy-1-(phenylmethyl)propyl)-1′-(1-methylethyl)-2′-oxo-1′,2′-dihydro-2,3′-bipyridine-5′-carboxamide]
13 | ≤ 5 | Cc1cnc2c(c1)[C@@H](NC[C@@H](O)[C@H](Cc1ccccc1)NC(=O)C1CCOCC1)CC1(CCC1)C2 [Example 502, N-((1S,2R)-2-hydroxy-3-(((5′S)-3′-methyl-5′,8′-dihydro-6′H-spiro[cyclobutane-1,7′-quinolin]-5′-yl)amino)-1-(phenylmethyl)propyl)tetrahydro-2H-pyran-4-carboxamide]
14 | ≤ 5 | Cc1cnc2c(c1)[C@@H](NC[C@@H](O)[C@H](Cc1cc(F)cc(F)c1)NC(=O)C1CCOCC1)CC(C)(C)C2 [Example 503, N-((1S,2R)-1-((3,5-difluorophenyl)methyl)-2-hydroxy-3-(((5S)-3,7,7-trimethyl-5,6,7,8-tetrahydro-5-quinolinyl)amino)propyl)tetrahydro-2H-pyran-4-carboxamide]
15 | ≤ 5 | Cc1cnc2c(c1)[C@@H](NC[C@@H](O)[C@H](Cc1ccccc1)NC(=O)C1CCOCC1)CC(C)(C)C2 [Example 504, N-((1S,2R)-2-hydroxy-1-(phenylmethyl)-3-(((5S)-3,7,7-trimethyl-5,6,7,8-tetrahydro-5-quinolinyl)amino)propyl)tetrahydro-2H-pyran-4-carboxamide]
16 | ≤ 5 | COCCNc1ccc2c(c1)[C@@H](NC[C@@H](O)[C@H](Cc1ccccc1)NC(=O)c1cc(-c3ccccn3)c(=O)n(C3CCCC3)c1)CC(C)(C)C2=O [Example 505, 1′-cyclopentyl-N-((1S,2R)-3-(((1S)-3,3-dimethyl-7-((2-(methyloxy)ethyl)amino)-4-oxo-1,2,3,4-tetrahydro-1-naphthalenyl)amino)-2-hydroxy-1-(phenylmethyl)propyl)-2′-oxo-1′,2′-dihydro-2,3′-bipyridine-5′-carboxamide]
17 | ≤ 5 | COCCNc1ccc2c(c1)[C@@H](NC[C@@H](O)[C@@H](Cc1ccccc1)NC(=O)c1cc(-c3ccccn3)c(=O)n(C3CCCC3)c1)CC(C)(C)C2=O [Example 507, 1′-cyclopentyl-N-((1R,2R)-3-(((1S)-3,3-dimethyl-7-((2-(methyloxy)ethyl)amino)-4-oxo-1,2,3,4-tetrahydro-1-naphthalenyl)amino)-2-hydroxy-1-(phenylmethyl)propyl)-2′-oxo-1′,2′-dihydro-2,3′-bipyridine-5′-carboxamide]
18 | ≤ 5 | CCc1cc2c(s1)CC1(CCC1)C[C@@H]2NC[C@@H](O)[C@H](Cc1ccccc1)NC(=O)c1cc(-c2ccccn2)c(=O)n(C(C)C)c1 [Example 508, N-((1S,2R)-3-(((4S)-2-ethyl-4,7-dihydro-5H-spiro[1-benzothiophene-6,1′-cyclobutan]-4-yl)amino)-2-hydroxy-1-(phenylmethyl)propyl)-1′-(1-methylethyl)-2′-oxo-1′,2′-dihydro-2,3′-bipyridine-5′-carboxamide]
19 | ≤ 5 | Cc1cnc2c(c1)[C@@H](NC[C@@H](O)[C@H](Cc1cc(F)cc(F)c1)NC(=O)[C@@H]1CCOC1)CC1(CCC1)C2 [Example 509, (3R)-N-((1S,2R)-1-((3,5-difluorophenyl)methyl)-2-hydroxy-3-(((5′S)-3′-methyl-5′,8′-dihydro-6′H-spiro[cyclobutane-1,7′-quinolin]-5′-yl)amino)propyl)tetrahydro-3-furancarboxamide]
20 | ≤ 5 | Cc1cnc2c(c1)[C@@H](NC[C@@H](O)[C@H](Cc1cc(F)cc(F)c1)NC(=O)C1CCOCC1)CC1(CCC1)C2 [Example 510, N-((1S,2R)-1-((3,5-difluorophenyl)methyl)-2-hydroxy-3-(((5′S)-3′-methyl-5′,8′-dihydro-6′H-spiro[cyclobutane-1,7′-quinolin]-5′-yl)amino)propyl)tetrahydro-2H-pyran-4-carboxamide]
21 | ≤ 5 | CCc1ccc2c(c1)[C@@H](NC[C@@H](O)[C@H](Cc1ccccc1)NC(=O)[C@H]1CN(C(=O)c3cccc(C)c3)CCO1)CC1(CCC1)O2 [Example 511, (2R)-N-((1S,2R)-3-(((4S)-6-ethyl-3,4-dihydrospiro[chromene-2,1′-cyclobutan]-4-yl)amino)-2-hydroxy-1-(phenylmethyl)propyl)-4-((3-methylphenyl)carbonyl)-2-morpholinecarboxamide]

From patent US8163766B2, “Beta-secretase modulators and methods of use” (Amgen Inc., priority 2005, dated 2012)
